Data reported in ChEMBL document CHEMBL4152322, “Dihydropyrimidinone/1,2,3-triazole hybrid molecules: Synthesis and anti-varicella-zoster virus (VZV) evaluation” (Eur J Med Chem, 2018).
The source made the active and inactive calls. No cut-off for these calls is given here.

Experiments:
Human alphaherpesvirus 3 [1] = test: Antiviral activity against thymidine kinase expressing Varicella-Zoster virus Oka infected in human HEL cells assessed as reduction in plaque formation after 5 days; format: functional, organism-based; conditions: Human alphaherpesvirus 3, strain Oka vaccine, 120 h
[2] = Cytostatic activity against human HEL cells after 3 days by coulter counter method; format: ADME, cell-based
Human alphaherpesvirus 3 [3] = test: Antiviral activity against thymidine kinase deficient Varicella-Zoster virus 07-1 infected in human HEL cells assessed as reduction in plaque formation after 5 days; format: functional, organism-based; conditions: Human alphaherpesvirus 3, 07-1, HEL, 120 h
Human betaherpesvirus 5 [4] = test: Antiviral activity against HCMV Davis infected in human HEL cells assessed as reduction in virus-induced cytopathic effect after 7 days; format: functional, organism-based
Human betaherpesvirus 5 [5] = test: Antiviral activity against HCMV AD169 infected in human HEL cells assessed as reduction in virus-induced cytopathic effect after 7 days; format: functional, organism-based

| Structure (SMILES) | EC50 (Human alphaherpesvirus 3 [1]) | CC50 at 72 h [2] | EC50 (Human alphaherpesvirus 3 [3]) | Activity (Human betaherpesvirus 5 [4]) | Activity (Human betaherpesvirus 5 [5]) |
| --- | --- | --- | --- | --- | --- |
| Nc1nc2c(ncn2COCCO)c(=O)[nH]1 [ACYCLOVIR] | 2.35 µM | > 440 µM | 133 µM | – | – |
| CC(=O)C1=C(C)N(Cc2cn(Cc3ccccc3)nn2)C(=O)NC1c1ccc(OCc2cn(Cc3ccccc3)nn2)cc1 (stereo unspecified) | 11.3 µM | > 100 µM | 10.8 µM | inactive | inactive |
| CC(=O)C1=C(C)N(Cc2cn(Cc3ccc([N+](=O)[O-])cc3)nn2)C(=O)NC1c1ccccc1 (stereo unspecified) | 48.9 µM | – | 42.6 µM | inactive | inactive |
| COc1ccc(OC)c(C2NC(=O)N(Cc3cn(Cc4ccccc4)nn3)C(C)=C2C(C)=O)c1 (stereo unspecified) | 48.9 µM | – | 50.2 µM | inactive | inactive |
| CC(=O)C1=C(C)N(Cc2cn(Cc3ccc([N+](=O)[O-])cc3)nn2)C(=O)N(Cc2cn(Cc3ccc([N+](=O)[O-])cc3)nn2)C1c1ccc(OCc2cn(Cc3ccc([N+](=O)[O-])cc3)nn2)cc1 (stereo unspecified) | 69.9 µM | – | > 20 µM | inactive | inactive |
| COc1ccc(OC)c(C2NC(=O)N(Cc3cn(Cc4ccc([N+](=O)[O-])cc4)nn3)C(C)=C2C(C)=O)c1 (stereo unspecified) | 44.7 µM | – | 48.1 µM | inactive | inactive |
| CC(=O)C1=C(C)N(Cc2cn(Cc3ccc([N+](=O)[O-])cc3)nn2)C(=O)N(Cc2cn(Cc3ccc([N+](=O)[O-])cc3)nn2)C1c1ccccc1 (stereo unspecified) | 3.62 µM | > 100 µM | 7.85 µM | inactive | inactive |
| CC(=O)C1=C(C)N(Cc2cn(Cc3ccccc3)nn2)C(=O)N(Cc2cn(Cc3ccccc3)nn2)C1c1ccc(N(C)C)cc1 (stereo unspecified) | 23.2 µM | – | 17 µM | inactive | inactive |
| COc1ccc(OC)c(C2C(C(C)=O)=C(C)N(Cc3cn(Cc4ccccc4)nn3)C(=O)N2Cc2cn(Cc3ccccc3)nn2)c1 (stereo unspecified) | 9.85 µM | > 100 µM | 8.87 µM | inactive | inactive |
| O=c1[nH]c(=O)n([C@H]2C[C@H](O)[C@@H](CO)O2)cc1/C=C/Br [BRIVUDINE] | 0.025 µM | > 300 µM | 104 µM | – | – |
| CC(=O)C1=C(C)N(Cc2cn(Cc3ccccc3)nn2)C(=O)N(Cc2cn(Cc3ccccc3)nn2)C1c1ccccc1 (stereo unspecified) | 8.38 µM | 7.02 µM | 6.08 µM | inactive | inactive |
